Like-named read-outs stand apart in the source and are kept apart here. Numbered stars: 1 amine (or outer) side, 2 acyl side, 3 side chain; on linkers, the order of the positions; unused ones are H or OH. Square brackets hold non-standard residues; d marks the D form. Peptide text beside a SMILES is read from it. * marks the point of attachment. Propanoyl(3-indol-3-yl) = O=C(CCc1c[nH]c2ccccc12)*; X8 = CN1CCN(S(=O)(=O)N[C@@H](Cc2ccccc2)C(=O)*)CC1; Propanoyl(3-(4-F-phenyl)) = O=C(CCc1ccc(F)cc1)*; Propanoyl(3-(4-MeO-Ph)) = COc1ccc(CCC(=O)*)cc1; Propanoyl(3-(4-Cl-Ph)) = O=C(CCc1ccc(Cl)cc1)*; Acetyl(1-naphthyl) = O=C(Cc1cccc2ccccc12)*; dPhe(4-Cl) = N[C@H](Cc1ccc(Cl)cc1)C(=O)O; Phenylacetyl(4-F) = O=C(Cc1ccc(F)cc1)*; Desaminotyrosyl = O=C(CCc1ccc(O)cc1)*; d1Nal = N[C@H](Cc1cccc2ccccc12)C(=O)O; NMeY = CN[C@@H](Cc1ccc(O)cc1)C(=O)O; d3Pal = N[C@H](Cc1cccnc1)C(=O)O; d2Thi = N[C@H](Cc1cccs1)C(=O)O; dCha = N[C@H](CC1CCCCC1)C(=O)O; Nicotinoyl = O=C(c1cccnc1)*; Morpholide = C1CN(*)CCO1; CO = O=C([*:1])[*:2]; Bn = c1ccc(C*)cc1; azaGly = NNC(=O)O
Molecular target: T1, LHRH receptors (Rattus norvegicus, UniProt P30969)
T1 construct: Pituitary membranes containing LHRH receptors are prepared in batches from quick-frozen rat pituitaries; tissue Hilltop Labs; host or cells: rat pituitary membranes
T1 sequence (P30969 1-327): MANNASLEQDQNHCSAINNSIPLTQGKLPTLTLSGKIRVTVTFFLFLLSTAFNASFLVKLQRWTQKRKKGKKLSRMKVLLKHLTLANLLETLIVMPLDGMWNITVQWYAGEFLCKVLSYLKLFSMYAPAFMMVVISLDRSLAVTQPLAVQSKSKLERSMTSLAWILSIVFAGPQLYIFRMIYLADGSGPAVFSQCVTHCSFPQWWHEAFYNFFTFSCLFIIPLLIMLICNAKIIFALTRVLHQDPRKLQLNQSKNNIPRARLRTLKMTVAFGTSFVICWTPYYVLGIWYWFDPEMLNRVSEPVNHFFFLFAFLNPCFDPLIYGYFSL
Test: Receptor Binding (radioligand receptor binding assay)
Details: rat pituitary membranes, 2 hours at 4° C., read-out: Receptor Binding pkI (converted)

[1] = table 3, radioiodinated [D-Leu^6 -des Gly^10 ]-LHRH ethyl amide 50 pM

| SMILES | Ki (table 4, radioligand 50 pM) [nM] | Ki [1] [nM] |
| --- | --- | --- |
| CC(C)C[C@H](NC(=O)[C@@H](CCCCNC(=O)c1cccnc1)NC(=O)[C@H](CCCCNC(=O)NN)NC(=O)[C@H](CO)NC(=O)[C@@H](Cc1cccc2ccccc12)NC(=O)CCc1ccc(F)cc1)C(=O)N[C@@H](CCCNC(=N)N)C(=O)N1CCC[C@H]1C(=O)N[C@H](C)C(N)=O [Compound 212, N-(3-(4-Fluorophenyl)propionyl)-D-1-Nal-Ser-Lys(N-epsilon-hydrazinecarbonyl)-D-Lys(N-epsilon-nicotinyl)-Leu-Arg-Pro-D-AlaNH2] ({Propanoyl(3-(4-F-phenyl))}-[d1Nal]SK(azaGly)[dK](Nicotinoyl)LRP[dA]-NH2) | 0.0339 | – |
| CCNC(=O)[C@@H]1CCCN1C(=O)[C@H](CCCNC(=N)N)NC(=O)[C@H](CC(C)C)NC(=O)[C@@H](Cc1c[nH]c2ccccc12)NC(=O)[C@H](Cc1ccc(O)cc1)NC(=O)[C@H](CO)NC(=O)[C@H](Cc1c[nH]c2ccccc12)NC(=O)CCc1ccc(OC)cc1 [Compound 95, (3-9)[N-(3-(4-Methoxyphenyl)propionyl) -Trp^3 -D-Trp^6 -Pro^9 NHEt]LHRH] ({Propanoyl(3-(4-MeO-Ph))}-WSY[dW]LRP-NHEt) | – | 0.0776 |
| CCNC(=O)[C@@H]1CCCN1C(=O)[C@H](CCCN=C(N)N)NC(=O)[C@H](CC(C)C)NC(=O)[C@@H](Cc1c[nH]c2ccccc12)NC(=O)[C@H](Cc1ccc(O)cc1)NC(=O)[C@H](CO)NC(=O)[C@H](Cc1ccc(O)cc1)NC(=O)CCc1ccc(Cl)cc1 [Compound 87, (3-9)[N-(3-(4-Chlorophenyl)propionyl) -Tyr^3 -D-Trp^6 -Pro^9 NHEt]LHRH] ({Propanoyl(3-(4-Cl-Ph))}-YSY[dW]LRP-NHEt) | – | 0.129 |
| CC(C)C[C@H](NC(=O)[C@@H](CCCCN)NC(=O)[C@H](Cc1ccc(O)cc1)N(C)C(=O)[C@H](COCc1ccccc1)NC(=O)[C@@H](Cc1cccs1)NC(=O)CCc1ccc(Cl)cc1)C(=O)N[C@@H](CCCNC(=N)N)C(=O)N1CCC[C@H]1C(=O)N[C@H](C)C(N)=O [Compound 168, (3-10)[N-(3-(4-Chlorophenyl)propionyl)-D-Thia^3 -Ser(O-Bzl)^4 -NMeTyr^5 -D-Lys^6 -D-Ala^10]LHRH] ({Propanoyl(3-(4-Cl-Ph))}-[d2Thi]S(Bn)[NMeY][dK]LRP[dA]-NH2) | 0.129 | – |
| CCNC(=O)[C@@H]1CCCN1C(=O)[C@H](CCCNC(=N)N)NC(=O)[C@H](CC(C)C)NC(=O)[C@@H](Cc1ccc(Cl)cc1)NC(=O)[C@H](Cc1ccc(O)cc1)NC(=O)[C@H](CO)NC(=O)[C@@H](Cc1c[nH]c2ccccc12)NC(=O)CCc1ccc(F)cc1 [Compound 149, (3-9)[N-(3-(4-Fluorophenyl)propionyl) -D-Trp3-D-4-Cl-Phe^6 -Pro^9 NHEt]LHRH] ({Propanoyl(3-(4-F-phenyl))}-[dW]SY[dPhe(4-Cl)]LRP-NHEt) | 0.0295 | – |
| CCNC(=O)[C@@H]1CCCN1C(=O)[C@H](CCCNC(=N)N)NC(=O)[C@H](CC(C)C)NC(=O)[C@@H](Cc1c[nH]c2ccccc12)NC(=O)[C@H](Cc1ccc(O)cc1)NC(=O)[C@H](CO)NC(=O)[C@H](Cc1c[nH]c2ccccc12)NC(=O)[C@H](Cc1ccccc1)NC(=O)N1CCOCC1 [Compound 59, N-alpha-Morpholinocarbonyl-Phe-Trp-Ser-Tyr-D-Trp-Leu-Arg-ProNHET] ({Morpholide-CO}-FWSY[dW]LRP-NHEt) | – | 0.00832 |
| CCNC(=O)[C@@H]1CCCN1C(=O)[C@H](CCCN=C(N)N)NC(=O)[C@H](CC(C)C)NC(=O)[C@@H](Cc1c[nH]c2ccccc12)NC(=O)[C@H](Cc1ccc(O)cc1)NC(=O)[C@H](CO)NC(=O)CCc1c[nH]c2ccccc12 [Compound 24, (4-9)[N-(3-(3-Indole)propionyl)-Ser^4 -D-Trp^6 -Pro^9 -NHEt] LHRH] ({Propanoyl(3-indol-3-yl)}-SY[dW]LRP-NHEt) | – | 3.72 |
| CCNC(=O)[C@@H]1CCCN1C(=O)[C@H](CCCNC(=N)N)NC(=O)[C@H](CC(C)C)NC(=O)[C@@H](CC1CCCCC1)NC(=O)[C@H](Cc1ccc(O)cc1)NC(=O)[C@H](COCc1ccccc1)NC(=O)Cc1cccc2ccccc12 [Compound 33, (4-9)[N-(1-Naphthylacetyl)-Ser^4 (OBzl)-D-Cha^6 -Pro^9 -NHEt]LHRH] ({Acetyl(1-naphthyl)}-S(Bn)Y[dCha]LRP-NHEt) | – | 13.8 |
| CCNC(=O)[C@@H]1CCCN1C(=O)[C@H](CCCNC(=N)N)NC(=O)[C@H](CC(C)C)NC(=O)[C@@H](Cc1c[nH]c2ccccc12)NC(=O)[C@H](Cc1ccc(O)cc1)NC(=O)[C@H](CO)NC(=O)CCc1ccc(O)cc1 [Compound 76, (4-9)[N-(3-(4-Hydroxyphenyl)propionyl) -Ser^4 -D-Trp^6 -Pro^9 NHEt]LHRH] (Desaminotyrosyl-SY[dW]LRP-NHEt) | – | 43.7 |

Next, values leading:

| Ki (table 4, radioligand 50 pM) [nM] | Ki [1] [nM] | SMILES |
| --- | --- | --- |
| – | 26.3 | CCNC(=O)[C@@H]1CCCN1C(=O)[C@H](CCCNC(=N)N)NC(=O)[C@H](CC(C)C)NC(=O)[C@@H](Cc1c[nH]c2ccccc12)NC(=O)[C@H](Cc1ccc(O)cc1)NC(=O)[C@H](CO)NC(=O)Cc1ccc(F)cc1 [Compound 74, (4-9)[N-(3-(4-Fluorophenyl)acetyl) -Ser^4 -D-Trp^6 -Pro^9 NHEt]LHRH] ({Phenylacetyl(4-F)}-SY[dW]LRP-NHEt) |
| – | 1.86 | CCNC(=O)[C@@H]1CCCN1C(=O)[C@H](CCCNC(=N)N)NC(=O)[C@H](CC(C)C)NC(=O)[C@@H](Cc1c[nH]c2ccccc12)NC(=O)[C@H](Cc1ccc(O)cc1)NC(=O)[C@H](CO)NC(=O)[C@H](Cc1c[nH]c2ccccc12)NC(=O)[C@H](Cc1ccccc1)NS(=O)(=O)N1CCN(C)CC1 [Compound 129, N-(N-alpha-(N-Methylpiperazinosulfonyl))-Phe-Trp-Ser-Tyr -D-Trp-Leu-Arg-ProNHEt] (X8-WSY[dW]LRP-NHEt) |
| 0.00631 | – | CC(C)C[C@H](NC(=O)[C@@H](Cc1cccnc1)NC(=O)[C@H](Cc1ccc(O)cc1)N(C)C(=O)[C@H](CO)NC(=O)[C@@H](Cc1cccc2ccccc12)NC(=O)CCc1ccc(F)cc1)C(=O)N[C@@H](CCCNC(=N)N)C(=O)N1CCC[C@H]1C(=O)N[C@H](C)C(N)=O [Compound 184, (3-10)[N-(3-(4-Fluorophenyl)propionyl)-D-1-Nal^3 -NMeTyr^5 -D-3-Pal^6 -D-Ala^10]LHRH] ({Propanoyl(3-(4-F-phenyl))}-[d1Nal]S[NMeY][d3Pal]LRP[dA]-NH2) |
| – | 3.98 | CCNC(=O)[C@@H]1CCCN1C(=O)[C@H](CCCNC(=N)N)NC(=O)[C@H](CC(C)C)NC(=O)[C@@H](Cc1c[nH]c2ccccc12)NC(=O)[C@H](Cc1ccc(O)cc1)NC(=O)[C@H](CO)NC(=O)CCc1ccc(F)cc1 [Compound 77, (4-9)[N-(3-(4-Fluorophenyl)propionyl) -Ser^4 -D-Trp^6 -Pro^9 NHEt]LHRH] ({Propanoyl(3-(4-F-phenyl))}-SY[dW]LRP-NHEt) |
| – | 166 | CCNC(=O)[C@@H]1CCCN1C(=O)[C@H](CCCNC(=N)N)NC(=O)[C@H](CC(C)C)NC(=O)[C@@H](CCC(N)=O)NC(=O)[C@H](Cc1ccc(O)cc1)NC(=O)[C@H](CO)NC(=O)CCc1c[nH]c2ccccc12 [Compound 50, (4-9)[N-(3-(3-Indole)propionyl)-Ser^4 -D-Gln^6 -Pro^9 -NHEt]LHRH] ({Propanoyl(3-indol-3-yl)}-SY[dQ]LRP-NHEt) |
| – | 0.0288 | CCNC(=O)[C@@H]1CCCN1C(=O)[C@H](CCCNC(=N)N)NC(=O)[C@H](CC(C)C)NC(=O)[C@@H](Cc1c[nH]c2ccccc12)NC(=O)[C@H](Cc1ccc(O)cc1)NC(=O)[C@H](CO)NC(=O)[C@@H](Cc1c[nH]c2ccccc12)NC(=O)CCc1ccc(F)cc1 [Compound 91, (3-9)[N-(3-(4-Fluorophenyl)propionyl) -D-Trp^3,6 Pro^9 NHEt]LHRH] ({Propanoyl(3-(4-F-phenyl))}-[dW]SY[dW]LRP-NHEt) |

Reference: patent US5140009A (Tap Pharmaceuticals, Inc., priority 1990, dated 1992)
